How the values were obtained:
CysLT1 receptor = target: T1, CysLT1 receptor (Homo sapiens, UniProt Q9Y271); test: Human cysteinyl leukotriene receptor 1 (CysLT1) radioligand binding assay; conditions: 10 μM concentration; CHO-K1 cells
T1 construct: expressed in transfected cells; host or cells: CHO-K1
T1 sequence (Q9Y271 1-337): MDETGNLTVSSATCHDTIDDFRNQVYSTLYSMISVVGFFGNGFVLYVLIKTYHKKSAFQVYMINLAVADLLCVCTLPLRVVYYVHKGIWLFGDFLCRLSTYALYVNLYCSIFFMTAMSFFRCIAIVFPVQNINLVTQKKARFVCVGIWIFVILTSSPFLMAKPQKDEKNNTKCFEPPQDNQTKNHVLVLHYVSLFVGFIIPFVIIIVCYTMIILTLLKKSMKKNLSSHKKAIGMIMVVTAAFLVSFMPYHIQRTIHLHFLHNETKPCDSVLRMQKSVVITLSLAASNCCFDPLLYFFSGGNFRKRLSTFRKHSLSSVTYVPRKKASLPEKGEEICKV
Method: (§1) All compounds were dissolved in dimethyl sulfoxide (DMSO). Final concentration of the DMSO in all tests was 1% (v/v). Inhibition in all tests is considered preferred if it exceeds 50% at 10 μM concentration (or less).
CysLT1 receptor is involved in immune diseases such as asthma, and has clinical significance as a point of intervention in asthma therapy. CysLT1 receptor is expressed in CHO-K1 cells (Chinese hamster ovary cells K1 clone). This is a competitive radioligand binding assay where substances compete with [^3H]-labeled Leulcotirene D4 (LTD4). Radioactive substance is measured with scintillation counting. Percentage of inhibition is calculated from the total radioactivity of the sample.

TxA2 receptor = target: T2, TxA2 receptor (Homo sapiens, UniProt P21731); test: Human thromboxane A2, TxA2, assay (SQ-29548 competition); type: binding; conditions: 10 μM concentration; HEK-293
T2 construct: expressed in transfected cells; host or cells: HEK-293
T2 sequence (P21731 1-343): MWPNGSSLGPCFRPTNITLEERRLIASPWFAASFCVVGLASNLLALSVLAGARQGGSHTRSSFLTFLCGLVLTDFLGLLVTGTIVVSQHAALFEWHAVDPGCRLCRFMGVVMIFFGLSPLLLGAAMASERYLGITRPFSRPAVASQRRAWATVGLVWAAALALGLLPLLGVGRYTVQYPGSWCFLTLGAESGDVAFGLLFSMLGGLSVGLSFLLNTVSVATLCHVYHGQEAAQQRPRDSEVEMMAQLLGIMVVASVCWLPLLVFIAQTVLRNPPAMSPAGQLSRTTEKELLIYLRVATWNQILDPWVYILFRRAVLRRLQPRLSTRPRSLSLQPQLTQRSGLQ
Method: as §1
TxA2 receptor is expressed in HEK-293 cell line. Compounds and radiolabelled competitor SQ-29548 are incubated for 30 minutes at 25° C. Level of bound SQ-29548 is measured by scintillation counting, and competition is calculated from the total amount of the bound SQ-29548. […] is an unstable lipid mediator involved in blood clotting, and immune processes.

CD1 mice = test: PMA induced ear oedema in CD1 mice; type: in vivo, mouse; conditions: topical, single dose of 250 or 100 μg/15 μL/ear; statistically significant vs positive control
Method: Male CD1 mice (Iffa Credo, France) weighing ˜35-40 g were randomly grouped (n=8 in vehicle treated test group, dexamethasone treated control group as well as in groups treated with compounds to be assayed). Test compounds, dexamethasone as well as vehicle (Trans-phase Delivery System, containing benzyl alcohol 10%, acetone 40% and isopropanol 50%) (all from Kemika, Croatia), were administered topically to the internal surface of the left ear thirty minutes prior to administration of phorbol 12-myristate 13-acetate (PMA) (Alexis biochemicals, USA). Test compounds were administered at a single dose of 250 or 100 μg/15 μL/ear and dexamethasone at a single dose of 50 μg/15 μL/ear. Thirty minutes later, 0.01% PMA solution in acetone was applied topically to the same area of each animal in a volume of 12 μL/ear. During the treatment and challenge, animals were anaesthetized by using inhalation anaesthesia. Six hours after the challenge, animals were euthanized by asphyxiation in 100% CO2 atmosphere. For assessing the auricular oedema, 8 mm discs were cut out of left and right auricular pinna and weighed. The degree of oedema was calculated by subtracting the weight of 8 mm disc of the untreated ear from that of the treated contralateral ear.

Balb/C mice = test: Ovalbumin induced pulmonary eosinophilia in mice; type: in vivo, mouse; conditions: OVA sensitized and challenged mice; i.n., i.p. or per os
Method: Male Balb/C mice with a body weight of 20-25 g are randomly divided into groups, and sensitized by an i.p. injection of ovalbumin (OVA, Sigma) on day zero and day fourteen. On the twentieth day, the mice are subjected to a challenge test by i.n. (intranasal) application of OVA (positive control or test groups) or PBS (negative control). The compounds are administered daily i.n., i.p. or per os in different doses starting 2 days before the challenge and up to the completion of the test. Compounds are administered as suspension either in PBS, methyl cellulose or carboxymethyl cellulose with addition od DMSO (up to 5% of the total volume). 48 hours after i.n. application of OVA, the animals are then anaesthetized to obtain bronchoalveolar lavage fluid (BALF), which is used to determine total protein concentration as well as concentrations of cytokines such as IL-1β and TNF-α, absolute number of cells, and percentage of eosinophils in BALF. Bronchoalveolar lavage (BAL) is performed by infusing 1 mL of PBS divided into 3 separate volumes (0.4, 0.3 and 0.3 ml) through trachea into the lungs. The fluid is immediately withdrawn and the cell suspension stored into previously prepared 1.5 mL Eppendorf tube. Bronchoalveolar lavage fluid (BALF) is then centrifuged at […] for 5 min (4° C.). Cells are resuspended in 700 μL of PBS. To prepare cytospins, 320 μL of suspension is centrifuged at 250 rpm for 10 min (Cytospin-3, Shandon Instruments). Cells are stained with Dif-Quik (Dade Behring) to determine percentage of eosinophils by counting of at least 100 cells. The remaining resuspended cells are used for total cell count in BALF analysis (Sysmex SF 3000). Finally, lungs are sampled and stored into 10% formalin for pathohistological evaluation of eosinophil and mononuclear infiltrate. Accumulation of eosinophils and mononuclear cells in peribronchial (PB) and perivascular (PV) lung tissue areas and in alveolar spaces is monitored.
Results can be expressed as (I) decrease of absolute cell number per mL in BALF, (II) decrease of number of eosinophils per mL in BALF, (III) reduction of relative number (percentage) of eosinophils in BALF, (IV) reduction of cytokine concentrations in BALF, as well as (V) suppression of accumulation of eosinophils and mononuclear cells in peribronchial (PB) and perivascular (PV) lung tissue areas and in alveolar spaces by pathohistological scoring of treated animals compared to positive control (OVA stimulated, but untreated animals).
Fluticasone and beclomethasone are used as standard anti-inflammatory substances, and compared for ability to inhibit eosinophilia to the negative and positive controls.

Structure (SMILES)	CysLT1 receptor, competition with [3H]-LTD4 (CysLT1 receptor)	TxA2 receptor, competition with SQ-29548 (TxA2 receptor)	suppression of ear oedema (CD1 mice)	reduction of percentage of eosinophils and/or their total number in BALF and/or by histological scoring (Balb/C mice)
CC(=O)C(c1c(O)c2cccc(C(C)C)c2oc1=O)c1c(O)c2cccc(C(C)C)c2oc1=O [Example 19]	significantly relevant activity	significantly relevant activity	considered active	statistically significant reduction
CC(C)c1cccc2c(O)c(C(CO)c3c(O)c4cccc(C(C)C)c4oc3=O)c(=O)oc12 [Example 30]	significantly relevant activity	significantly relevant activity	considered active	statistically significant reduction
CC(C)c1cccc2c(O)c(C(C(=O)OCCO)c3c(O)c4cccc(C(C)C)c4oc3=O)c(=O)oc12 [Example 50]	significantly relevant activity	significantly relevant activity	considered active	statistically significant reduction

Source: US20080153872A1, “Bis-(Coumarin) Compounds With Anti-Inflammatory Activity” (priority 2005, published 2008)
